From the supplement of paper PMC11208160

Assay: recombinant UMI read abundance after kanamycin selection (control-corrected) (log10(CPM+1)); higher = more efficient recombination; extreme values may be limits of the assay; sequences stand for … in AGTGCAGAGAAAATCGGCCAGTTTTCTCTGCCTGCAGTCCGCATGCCGTGGGACCCCTTGGGTTCTAACCTGTTGCCTAGATTTATGCAGCGGACTGCCTTTCTCCCAAAGTGATAAACCGG…AGGTTGGTTTCACT; site = the 11-nt donor
Summary of the method: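 The measure is log10(CPM+1) for recombinant UMIs. These were PCR-amplified across the donor–target junction and sequenced after Escherichia coli carrying a donor and donor-binding-loop pair library and a target plasmid with T7-inducible IS621 bridge recombinase was plated on IPTG (0.07 mM) plus kanamycin or unselected. CPM were averaged over two replicates and scaled by control-derived factors.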
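Also: IS621 bridge recombinase in Escherichia coli cells against a fixed T5 target plasmid.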

## CCCATATCATGGACCGGTTTTCCCGGTAATCCGTATTTGTT (site CCCATATCTAA)
  recombinant UMI read abundance (log10): 1.01

## CCCATATCATGGACCGGTTTTCCCGGTAATCCGTATTTGTT (site CCCATATCTCA)
  recombinant UMI read abundance (log10): 0.0132

## CCCATATCATGGACCGGTTTTCCCGGTAATCCGTATTTGTT (site CCCATATCTGA)
  recombinant UMI read abundance (log10): 0

## CCCATATCATGGACCGGTTTTCCCGGTAATCCGTATTTGTT (site CCCATATCTTA)
  recombinant UMI read abundance (log10): 0

## CCCATCTCATGGACCGGTTTTCCCGGTAATCCGTATTTGGG (site CCCATCTCTCC)
  recombinant UMI read abundance (log10): 0

## CCCATCTCATGGACCGGTTTTCCCGGTAATCCGTATTTGGG (site CCCCTCTCTCC)
  recombinant UMI read abundance (log10): 0.078

## CCCATCTCATGGACCGGTTTTCCCGGTAATCCGTATTTGGG (site CCCGTCTCTCC)
  recombinant UMI read abundance (log10): 0.00519

## CCCATCTCATGGACCGGTTTTCCCGGTAATCCGTATTTGGG (site CCCTTCTCTCC)
  recombinant UMI read abundance (log10): 0.0111

## CCCCACACATGGACCGGTTTTCCCGGTAATCCGTATTTGGA (site CCCCACACTTA)
  recombinant UMI read abundance (log10): 0.369

## CCCCACACATGGACCGGTTTTCCCGGTAATCCGTATTTGGA (site CCCCACACTTC)
  recombinant UMI read abundance (log10): 0.275

## CCCCACACATGGACCGGTTTTCCCGGTAATCCGTATTTGGA (site CCCCACACTTG)
  recombinant UMI read abundance (log10): 0

## CCCCACACATGGACCGGTTTTCCCGGTAATCCGTATTTGGA (site CCCCACACTTT)
  recombinant UMI read abundance (log10): 0

## CCCCACACATGGACCGGTTTTCCCGGTAATCCGTATTTGTG (site CCCCACACTAA)
  recombinant UMI read abundance (log10): 0.0034

## CCCCACACATGGACCGGTTTTCCCGGTAATCCGTATTTGTG (site CCCCACACTCA)
  recombinant UMI read abundance (log10): 0.00514

## CCCCACACATGGACCGGTTTTCCCGGTAATCCGTATTTGTG (site CCCCACACTGA)
  recombinant UMI read abundance (log10): 0

## CCCCACACATGGACCGGTTTTCCCGGTAATCCGTATTTGTG (site CCCCACACTTA)
  recombinant UMI read abundance (log10): 0.0257

## CCCCACTCATGGACCGGTTTTCCCGGTAATCCGTATTTGTA (site CCCCACACTTA)
  recombinant UMI read abundance (log10): 0

## CCCCACTCATGGACCGGTTTTCCCGGTAATCCGTATTTGTA (site CCCCACCCTTA)
  recombinant UMI read abundance (log10): 0.00571

## CCCCACTCATGGACCGGTTTTCCCGGTAATCCGTATTTGTA (site CCCCACGCTTA)
  recombinant UMI read abundance (log10): 0.00566

## CCCCACTCATGGACCGGTTTTCCCGGTAATCCGTATTTGTA (site CCCCACTCTTA)
  recombinant UMI read abundance (log10): 2.01

## CCCCATTCATGGACCGGTTTTCCCGGTAATCCGTATTTGGA (site CCCCATTCTTC)
  recombinant UMI read abundance (log10): 0.274

## CCCCCTACATGGACCGGTTTTCCCGGTAATCCGTATTTGAG (site CACCCTACTCT)
  recombinant UMI read abundance (log10): 0.0202

## CCCCCTACATGGACCGGTTTTCCCGGTAATCCGTATTTGAG (site CCCCCTACTCT)
  recombinant UMI read abundance (log10): 0.0375

## CCCCCTACATGGACCGGTTTTCCCGGTAATCCGTATTTGAG (site CGCCCTACTCT)
  recombinant UMI read abundance (log10): 0.0197

## CCCCCTACATGGACCGGTTTTCCCGGTAATCCGTATTTGAG (site CTCCCTACTCT)
  recombinant UMI read abundance (log10): 0.011

## CCCCGGGCATGGACCGGTTTTCCCGGTAATCCGTATTTGGG (site CCCCGGGCTCC)
  recombinant UMI read abundance (log10): 0.182

## CCCGAAGCATGGACCGGTTTTCCCGGTAATCCGTATTTGTT (site CCCGAAGCTAA)
  recombinant UMI read abundance (log10): 1.18

## CCCGAGACATGGACCGGTTTTCCCGGTAATCCGTATTTGGT (site CCCGAGACTAC)
  recombinant UMI read abundance (log10): 0.543

## CCCGATCCATGGACCGGTTTTCCCGGTAATCCGTATTTGTG (site CCCGATCCTCA)
  recombinant UMI read abundance (log10): 1.73

## CCCGCACCATGGACCGGTTTTCCCGGTAATCCGTATTTGCA (site CCCGCACCTTG)
  recombinant UMI read abundance (log10): 0

## CCCGCCACATGGACCGGTTTTCCCGGTAATCCGTATTTGCC (site CCCGCCACTGG)
  recombinant UMI read abundance (log10): 2.07

## CCCGCGGCATGGACCGGTTTTCCCGGTAATCCGTATTTGGG (site CCCGCGGCTCC)
  recombinant UMI read abundance (log10): 0.0266

## CCCGGTCCATGGACCGGTTTTCCCGGTAATCCGTATTTGCA (site ACCGGTCCTTG)
  recombinant UMI read abundance (log10): 0

## CCCGGTCCATGGACCGGTTTTCCCGGTAATCCGTATTTGCA (site CACGGTCCTTG)
  recombinant UMI read abundance (log10): 0

## CCCGGTCCATGGACCGGTTTTCCCGGTAATCCGTATTTGCA (site CCAGGTCCTTG)
  recombinant UMI read abundance (log10): 0

## CCCGGTCCATGGACCGGTTTTCCCGGTAATCCGTATTTGCA (site CCCAGTCCTTG)
  recombinant UMI read abundance (log10): 0

## CCCGGTCCATGGACCGGTTTTCCCGGTAATCCGTATTTGCA (site CCCCGTCCTTG)
  recombinant UMI read abundance (log10): 0.0143

## CCCGGTCCATGGACCGGTTTTCCCGGTAATCCGTATTTGCA (site CCCGATCCTTG)
  recombinant UMI read abundance (log10): 0

## CCCGGTCCATGGACCGGTTTTCCCGGTAATCCGTATTTGCA (site CCCGCTCCTTG)
  recombinant UMI read abundance (log10): 0

## CCCGGTCCATGGACCGGTTTTCCCGGTAATCCGTATTTGCA (site CCCGGACCTTG)
  recombinant UMI read abundance (log10): 0

## CCCGGTCCATGGACCGGTTTTCCCGGTAATCCGTATTTGCA (site CCCGGCCCTTG)
  recombinant UMI read abundance (log10): 0

## CCCGGTCCATGGACCGGTTTTCCCGGTAATCCGTATTTGCA (site CCCGGGCCTTG)
  recombinant UMI read abundance (log10): 0.00671

## CCCGGTCCATGGACCGGTTTTCCCGGTAATCCGTATTTGCA (site CCCGGTACTTG)
  recombinant UMI read abundance (log10): 0

## CCCGGTCCATGGACCGGTTTTCCCGGTAATCCGTATTTGCA (site CCCGGTCCTAG)
  recombinant UMI read abundance (log10): 0

## CCCGGTCCATGGACCGGTTTTCCCGGTAATCCGTATTTGCA (site CCCGGTCCTCG)
  recombinant UMI read abundance (log10): 0

## CCCGGTCCATGGACCGGTTTTCCCGGTAATCCGTATTTGCA (site CCCGGTCCTGG)
  recombinant UMI read abundance (log10): 0

## CCCGGTCCATGGACCGGTTTTCCCGGTAATCCGTATTTGCA (site CCCGGTCCTTA)
  recombinant UMI read abundance (log10): 0.0178

## CCCGGTCCATGGACCGGTTTTCCCGGTAATCCGTATTTGCA (site CCCGGTCCTTC)
  recombinant UMI read abundance (log10): 0

## CCCGGTCCATGGACCGGTTTTCCCGGTAATCCGTATTTGCA (site CCCGGTCCTTG)
  recombinant UMI read abundance (log10): 0

## CCCGGTCCATGGACCGGTTTTCCCGGTAATCCGTATTTGCA (site CCCGGTCCTTT)
  recombinant UMI read abundance (log10): 0.0121

## CCCGGTCCATGGACCGGTTTTCCCGGTAATCCGTATTTGCA (site CCCGGTGCTTG)
  recombinant UMI read abundance (log10): 0

## CCCGGTCCATGGACCGGTTTTCCCGGTAATCCGTATTTGCA (site CCCGGTTCTTG)
  recombinant UMI read abundance (log10): 0

## CCCGGTCCATGGACCGGTTTTCCCGGTAATCCGTATTTGCA (site CCCGTTCCTTG)
  recombinant UMI read abundance (log10): 0

## CCCGGTCCATGGACCGGTTTTCCCGGTAATCCGTATTTGCA (site CCCTGTCCTTG)
  recombinant UMI read abundance (log10): 0.00802

## CCCGGTCCATGGACCGGTTTTCCCGGTAATCCGTATTTGCA (site CCGGGTCCTTG)
  recombinant UMI read abundance (log10): 0.00973

## CCCGGTCCATGGACCGGTTTTCCCGGTAATCCGTATTTGCA (site CCTGGTCCTTG)
  recombinant UMI read abundance (log10): 0.00597

## CCCGGTCCATGGACCGGTTTTCCCGGTAATCCGTATTTGCA (site CGCGGTCCTTG)
  recombinant UMI read abundance (log10): 0

## CCCGGTCCATGGACCGGTTTTCCCGGTAATCCGTATTTGCA (site CTCGGTCCTTG)
  recombinant UMI read abundance (log10): 0.00601

## CCCGGTCCATGGACCGGTTTTCCCGGTAATCCGTATTTGCA (site GCCGGTCCTTG)
  recombinant UMI read abundance (log10): 0

## CCCGGTCCATGGACCGGTTTTCCCGGTAATCCGTATTTGCA (site TCCGGTCCTTG)
  recombinant UMI read abundance (log10): 0.00534

## CCCGGTCCATGGACCGGTTTTCCCGGTAATCCGTATTTGCT (site CCCGGTCCTAG)
  recombinant UMI read abundance (log10): 0

## CCCGGTCCATGGACCGGTTTTCCCGGTAATCCGTATTTGCT (site CCCGGTCCTCG)
  recombinant UMI read abundance (log10): 0.0027

## CCCGGTCCATGGACCGGTTTTCCCGGTAATCCGTATTTGCT (site CCCGGTCCTGG)
  recombinant UMI read abundance (log10): 0

## CCCGGTCCATGGACCGGTTTTCCCGGTAATCCGTATTTGCT (site CCCGGTCCTTG)
  recombinant UMI read abundance (log10): 0

## CCCGGTCCATGGACCGGTTTTCCCGGTAATCCGTATTTGTA (site CCCGGTCCTTA)
  recombinant UMI read abundance (log10): 0

## CCCGGTCCATGGACCGGTTTTCCCGGTAATCCGTATTTGTA (site CCCGGTCCTTC)
  recombinant UMI read abundance (log10): 0.0127

## CCCGGTCCATGGACCGGTTTTCCCGGTAATCCGTATTTGTA (site CCCGGTCCTTG)
  recombinant UMI read abundance (log10): 0

## CCCGGTCCATGGACCGGTTTTCCCGGTAATCCGTATTTGTA (site CCCGGTCCTTT)
  recombinant UMI read abundance (log10): 0.041

## CCCGTATCATGGACCGGTTTTCCCGGTAATCCGTATTTGGT (site CCCGTATCTAC)
  recombinant UMI read abundance (log10): 0.563

## CCCGTCGCATGGACCGGTTTTCCCGGTAATCCGTATTTGCT (site CCCGTCGCTAG)
  recombinant UMI read abundance (log10): 0.795

## CCCTACACATGGACCGGTTTTCCCGGTAATCCGTATTTGTA (site CCCAACACTTA)
  recombinant UMI read abundance (log10): 0.0262

## CCCTACACATGGACCGGTTTTCCCGGTAATCCGTATTTGTA (site CCCCACACTTA)
  recombinant UMI read abundance (log10): 0.00329

## CCCTACACATGGACCGGTTTTCCCGGTAATCCGTATTTGTA (site CCCGACACTTA)
  recombinant UMI read abundance (log10): 0.0499

## CCCTACACATGGACCGGTTTTCCCGGTAATCCGTATTTGTA (site CCCTACACTTA)
  recombinant UMI read abundance (log10): 0.0328

## CCCTAGCCATGGACCGGTTTTCCCGGTAATCCGTATTTGTC (site CCCTAGCCTGA)
  recombinant UMI read abundance (log10): 0.265
